Test results taken from patent US10392398B2, “Inhibitors of Late SV40 Factor (LSF) as cancer chemotherapeutics” (TRUSTEES OF BOSTON UNIVERSITY, priority 2010, dated 2019).
Read-outs that look alike come from different tables or passages of the source.

Key:
Assay type in all cases: cell-based
[1] = tested on: A549 cells; assay: Cell proliferation assay (MTS), A549; conditions: Homo sapiens; for IC50: Example 7, FIG. 8, read-out: growth inhibition of A549 Cell Line IC50; for GI50: 72 h, MTS, read-out: GI50 (μM) A549
Description: (§1) Cells were plated at 3×10^4 cells/mL, A549 and HeLa, and 1×10^4 cells/mL, NIH/3T3, in 96-well plates and incubated for 24 h to allow for cell adhesion. LSF-library compounds were dissolved in DMSO, serial diluted in appropriate medium and added to cells in triplicate (2 plates). DMSO was added to control wells at a final concentration of 1%. After 72 h incubation in the presence of compound, confluent cells were assayed for growth proliferation with CellTiter 96® AQueous One Solution Cell Proliferation Assay (MTS) (Promega) according to the manufacturer's protocol. Plates were read at 490 nm on a microplate reader, and IC50 values were determined as the percentage of compound-treated cell growth to control cell growth. HCC cells—one hour after plating HCC cells onto 96-well plates, compound or vehicle (DMSO) was added to the desired concentrations, keeping DMSO at 0.5%. At indicated time points, cell viability was assayed using the CellTiter 96® Non-Radioactive Cell Proliferation Assay (MTT) (Promega).
(§2) QGY-7703 and A549 cells were cultured at 37° C. in 5% CO2 in DMEM (Dulbecco's modification of Eagle's Medium; Corning) supplemented with 10% Fetal Bovine Serum (FBS; Invitrogen). NIH-3T3 cells were cultured at 37° C. in 5% CO2 in DMEM supplemented with 10% Fetal Calf Serum (FCS; Atlanta Biologicals). For cell viability assays, 1,500 cells were seeded in 96-well plates and treated with FQI-34 or vehicle (DMSO) at appropriate concentrations (DMSO at 1%) after 20 hours. After 72-hour incubation with compound or vehicle, cell growth was assessed via the Promega CellTiter 96® AQueous One Solution Cell Proliferation Assay, a colorimetric method to determine the number of viable cells. 20 μL of the CellTiter 96® AQueous One Solution Reagent was added directly into cultured wells and incubated for one hour, after which the absorbance at 490 nm was read with a 96-well plate reader (Opys MR Microplate Reader). The CellTiter 96® AQueous One Solution contains an MTS tetrazolium compound which is bioreduced by cells into a colored formazan product that is soluble in tissue culture medium. The quantity of formazan product as measured by absorbance is directly proportional to the number of living cells in culture. GI50 values were determined from plots of the percentage of compound-treated cell growth to vehicle cell growth vs. compound concentration (GraphPad Prism; non-linear regression 4-parameter curve fit with variable slope).

[2] = tested on: HeLa cells; assay: Cell proliferation assay (MTS), HeLa; conditions: Homo sapiens; for IC50: HeLa, Example 7, FIG. 8, read-out: growth inhibition of HeLa Cell Line IC50; for GI50: 72 h, MTS
Description: as §1

[3] = tested on: NIH/3T3 cells; assay: Cell proliferation assay (MTS), NIH/3T3; conditions: for IC50 / GI50: Mus musculus, NIH3T3; for IC50: Example 7, FIG. 8, read-out: growth inhibition of NIH/3T3 Cell Line IC50; for antiproliferative activity relative to comparator: against each cell line (NIH/3T3, HeLa, A549), in words
Description: as §1, §2

[4] = target: T1, LSF (Homo sapiens, UniProt Q12800); assay: LSF-dependent luciferase reporter assay in NIH 3T3 cells; set-up: expressed in transfected cells; host or cells: NIH 3T3; conditions: for IC50: NIH 3T3 cells, dual luciferase, ranges where few concentrations tested, read-out: IC50 (μM) LSF-dependent reporter assat NIH 3T3; for activity in the LSF luciferase reporter assay relative to comparator: in words
T1 sequence (Q12800 1-502): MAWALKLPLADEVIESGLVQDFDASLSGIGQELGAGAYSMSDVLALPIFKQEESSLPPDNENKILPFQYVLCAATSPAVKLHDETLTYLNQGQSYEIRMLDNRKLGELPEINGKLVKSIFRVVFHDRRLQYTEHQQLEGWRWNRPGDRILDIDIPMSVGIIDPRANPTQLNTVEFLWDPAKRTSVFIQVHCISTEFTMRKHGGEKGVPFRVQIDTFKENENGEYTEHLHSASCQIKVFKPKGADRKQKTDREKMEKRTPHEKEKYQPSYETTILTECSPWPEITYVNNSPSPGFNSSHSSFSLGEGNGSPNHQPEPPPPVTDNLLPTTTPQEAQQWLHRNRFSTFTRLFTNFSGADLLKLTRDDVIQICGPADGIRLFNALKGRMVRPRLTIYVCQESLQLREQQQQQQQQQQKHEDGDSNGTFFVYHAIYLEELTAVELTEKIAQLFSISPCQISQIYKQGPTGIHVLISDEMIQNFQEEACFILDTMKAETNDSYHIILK
Description: NIH 3T3 cells were transfected with the expression construct pEF1α-LSF, a LSF expression vector^6,20; the reporter construct pGL3B-WT4E1b, a firefly luciferase reporter vector driven by LSF^12; phRL-TK, a control renilla luciferase reporter vector; and pEFGP, essentially as previously described^12. Five hours after transfection, either vehicle (DMSO) or FQI compound was added, keeping DMSO at 0.5%. Cell extracts were harvested 36 hours post-transfection and firefly and renilla luciferase activities measured via a dual luciferase assay (Promega). Five μl of extract was mixed with 30 μl of luciferase assay reagent (Promega), and luminescence measured for 10 seconds using a 20/20n luminometer (Turner Biosystems). Subsequently, 30 μl of Stop & Glo reagent (Promega) was added, and luminescence also measured for 10 seconds. LSF transactivation activity is given as relative luciferase activity, the ratio of firefly to renilla activities.
NIH-3T3 cells were cultured at 37° C. in 5% CO2 in DMEM (Dulbecco's modification of Eagle's Medium; Corning) supplemented with 10% FCS (FCS; Atlanta Biologicals). Approximately 24 hours prior to transfection, 200,000 cells were plated in 35 mm dishes. After 24 hours, cells were ˜70% confluent, and were transfected for 5 hours with pEF1α-LSF, the reporter construct pGL3B-WT4E1b, phRLTK, and pEFGP (Grant, T. J. et al. Antiproliferative small-molecule inhibitors of transcription factor LSF reveal oncogene addiction to LSF in hepatocellular carcinoma. PNAS (2012), 109, 1-6). Vehicle (DMSO) or FQI-34 was then added, keeping the DMSO at 0.5%. Cell extracts were harvested 36 h post-transfection, and firefly and renilla luciferase activities were measured via a dual luciferase assay (Promega Dual-Luciferase Reporter Assay System). Relative luciferase activity represents firefly luciferase activity normalized to that of renilla luciferase in each extract. IC50 values were determined from plots of normalized luciferase activity vs. compound concentration (Prism GraphPad; non-linear regression 4-parameter curve fit with variable slope).

[5] = tested on: QGY-7703 cells; assay: Cell viability GI50 (MTS), QGY-7703; conditions: Homo sapiens
Description: as §2

[6] = tested on: cancer cell lines; assay: Inhibition of growth of cancer cell lines in vitro (FIGS. 9 and 10); conditions: 0.2-33 μM
Description: FIG. 9A-9K show the results of inhibition of growth of cancer cell lines in vitro by FQI1 (Formula (IV)). The effect of inhibition of cell growth (represented as a fraction of 1) of increasing concentrations of FQI1 between 0.2-33 μM is shown.
The effect of inhibition of cell growth (represented as a fraction of 1) of increasing concentrations of FQI2 between 0.2-33 μM is shown.

[7] = tested on: QGY-7703 HCC cells; assay: HCC cell viability (MTT), QGY-7703; conditions: in words
Description: as §1

[8] = Table 3, read-out: GI50 (μM) NIH 3T3
[9] = 72 h, MTS, read-out: GI50 (μM) NIH/3T3

SMILES | IC50 [1] [µM] | IC50 [2] [µM] | IC50 [3] [µM] | IC50 [4] [µM] | GI50 [3, 8] [µM] | also measured
COc1ccc(C2CC(=O)Nc3ccc(OC)cc32)cc1 (stereo not drawn) [FQI21, 6-methoxy-4-(4-methoxyphenyl)-3,4-dihydroquinolin-2(1H)-one] | > 200 | 67 ± 9.9 | > 200 |  |  | 
CCCOc1ccccc1C1CC(=O)Nc2cc3c(cc21)OCO3 (stereo not drawn) [FQI16, 8-(2-propoxyphenyl)-7,8-dihydro-[1,3]dioxolo[4,5-g]quinolin-6(5H)-one] |  |  |  | 2 to 4 | 2.3 ± 0.5 | 
CCOCCOCCOCCCc1ccc(C2CC(=O)Nc3cc4c(cc32)OCO4)c(OCC)c1 (stereo not drawn) [PEG-FQI] |  |  |  |  |  | GI50 ([5]; Table 5, read-out: QGY-7703 GI50): > 10 µM; GI50 ([5]; Table 8, read-out: QGY-7703 GI50): > 10 µM
CCOc1ccccc1[C@@H]1CC(=O)Nc2cc3c(cc21)OCO3 [(R)-FQI1] | 18 ± 3.2 | 8 ± 1 | 45 ± 6.9 |  |  | activity in the LSF luciferase reporter assay relative to comparator [4]: much less active than the racemate; GI50 [1]: 18 ± 3.2 µM; GI50 [2]: 8 ± 1 µM; GI50 [3, 9]: 45 ± 7 µM; times less active than FQI1 in cell proliferation assays ([3]; NIH/3T3, HeLa and A549): ~10 times
COc1ccccc1C1CC(=O)Nc2cc(OC)c(OC)c(OC)c21 (stereo not drawn) [FQI15, 5,6,7-trimethoxy-4-(2-methoxyphenyl)-3,4-dihydroquinolin-2(1H)-one] | > 200 | > 200 | > 200 |  |  | 
CCOc1ccccc1C1CC(=O)Nc2cc3c(cc21)OC(F)(F)O3 (stereo not drawn) [FQI9, 8-(2-ethoxyphenyl)-2,2-difluoro-7,8-dihydro-[1,3]dioxolo[4,5-g]quinolin-6(5H)-one] | > 300 | 6.6 ± 1.2 | 30 ± 3.5 |  |  | 
COc1ccccc1C1CC(=O)Nc2cc3c(cc21)OC(F)(F)O3 (stereo not drawn) [FQI13, 2,2-difluoro-8-(2-methoxyphenyl)-7,8-dihydro-[1,3]dioxolo[4,5-g]quinolin-6(5H)-one] | > 300 | 8.8 ± 1.4 | 72 ± 9.8 |  |  | 
CCOc1ccccc1-c1cc(=O)[nH]c2cc3c(cc12)OCO3 [FQI2, 8-(2-ethoxyphenyl)-[1,3]dioxolo[4,5-g]quinolin-6(5H)-one] |  |  |  | 0.8 | 0.71 ± 0.13 | activity in the LSF luciferase reporter assay relative to comparator [4]: as effective as the (S)-enantiomer; GI50 [1]: 1.9 ± 0.9 µM; growth of a variety of cancers, in vitro cell assay [6]: inhibit the growth of a variety of cancers; GI50 [2]: 0.4 ± 0.04 µM; cellular proliferation of QGY-7703 cells (MTT) [7]: decreased overall cellular proliferation; GI50 [3, 9]: 0.71 ± 0.13 µM; antiproliferative activity relative to comparator [3]: as active as (S)-FQI1
COc1ccc(C2CC(=O)Nc3cc4c(cc32)OCO4)cc1 (stereo not drawn) [FQI19, 8-(4-methoxyphenyl)-7,8-dihydro-[1,3]dioxolo[4,5-g]quinolin-6(5H)-one] | > 200 | > 200 | > 200 |  |  | 
CCOc1ccccc1C1CC(=O)Nc2cc(OC)c(OC)c(OC)c21 (stereo not drawn) [FQI11, 4-(2-ethoxyphenyl)-5,6,7-trimethoxy-3,4-dihydroquinolin-2(1H)-one] | > 200 | > 200 | > 200 |  |  | 
CCOc1ccccc1[C@H]1CC(=O)Nc2cc3c(cc21)OCO3 [(S)-FQI1] | 3 ± 1.3 | 0.3 ± 0.025 | 1.1 ± 0.45 | 0.8 | 1.1 ± 0.4 | fold more active than the racemate in the luciferase reporter assay ([4]; versus racemic FQI1): approximately 3 fold; GI50 [1]: 3 ± 1.3 µM; GI50 [2]: 0.3 ± 0.03 µM; GI50 [3, 9]: 1.1 ± 0.41 µM; antiproliferative activity relative to comparator [3]: at least twice as active
COc1ccccc1C1CC(=O)Nc2cc3c(cc21)OCO3 (stereo not drawn) [FQI12, 8-(2-methoxyphenyl)-7,8-dihydro-[1,3]dioxolo[4,5-g]quinolin-6(5H)-one] |  |  |  | 3 to 4 | 4 ± 0.8 | 
COc1ccc2c(c1)C(c1ccccc1OC)CC(=O)N2 (stereo not drawn) [FQI14, 6-methoxy-4-(2-methoxyphenyl)-3,4-dihydroquinolin-2(1H)-one] | > 10000 |  |  |  |  | 
CCCCOc1ccccc1C1CC(=O)Nc2cc3c(cc21)OCO3 (stereo not drawn) [FQI3, 8-(2-Butoxyphenyl)-7,8-dihydro-[1,3]dioxolo[4,5-g]quinolin-6(5H)-one] |  |  |  | 3 to 5 | 2.6 ± 0.5 | 
